The data set is described as follows: incorporation of unoprostone isopropyl into MPEG-hexPLA polymer micelles. It counts as physicochemical. The procedure: The incorporation studies were carried out by a standard formulation protocol. Briefly, a defined amount of the provided unoprostone isopropyl ethanol solution was taken and the ethanol rapidly evaporated, the remaining compound was re-dissolved together with the MPEG-hexPLA excipient in acetone and added dropwise under sonication into water, followed by evaporation of the organic solvent and equilibration of the micelle solution overnight.
As it can be seen, for loadings up to 500 mg unoprostone isopropyl per gram MPEGhexPLA, loading efficiencies higher than 80% could be obtained by this simple procedure (FIG. 1), corresponding to 2.22 mg drug per mL formulation (FIG. 2). […] The latter formulations with a minimum of drug loss in the formulation procedure gave transparent formulations.

On to `CCCCCCCC(=O)CC[C@@H]1[C@@H](C/C=C\CCCC(=O)OC(C)C)[C@@H](O)C[C@H]1O` [unoprostone isopropyl, (+)-isopropyl (Z)-7-[(1R,2R,3R,5S)-3,5-dihydroxy-2-(3-oxodecyl)cyclopentyl]hept-5-enoate], for which the “obtained drug concentration in formulation” value (loading 500 mg per gram MPEGhexPLA (FIG. 2)) is 2.22 mg drug per mL formulation. Where the note is “loadings up to 300 mg/g”, the Incorporation efficiencies was over 90% and the “obtained drug concentration in formulation” value was at most 1.67 mg/mL. In addition, the loading efficiencies result (loadings up to 500 mg unoprostone isopropyl per gram MPEGhexPLA (FIG. 1)) is recorded as “higher than 80%”.

The values are drawn from US8835571B2, “Fatty acid derivative-polymer conjugate” (Sucampo AG, priority 2012, dated 2014).
